Data as given in ChEMBL document CHEMBL1147288, “Isolation of flavonoids and a chalcone from Helichrysum odoratissimum and synthesis of helichrysetin” (1989).
≈ marks a conversion by molar mass, not a printed value.

Assays:
[1] = system: Serratia marcescens; experiment: Antibacterial activity against Serratia marcescens ATCC 8100 after 24 to 48 hrs at 37 degC by liquid dilution method; assay type: functional
[2] = system: Epidermophyton floccosum; experiment: Antifungal activity against Epidermophyton floccosum after 7 days at 27 degC by liquid dilution method; assay type: functional
[3] = system: Bacillus subtilis; experiment: Antibacterial activity against Bacillus subtilis ATCC 6633 after 24 to 48 hrs at 37 degC by liquid dilution method; assay type: functional
[4] = system: Proteus vulgaris; experiment: Antibacterial activity against Proteus vulgaris […] after 24 to 48 hrs at 37 degC by liquid dilution method; assay type: functional
[5] = system: Microsporum canis; experiment: Antifungal activity against Microsporum canis after 7 days at 27 degC by liquid dilution method; assay type: functional
[6] = system: Paecilomyces; experiment: Antifungal activity against Paecilomyces after 7 days at 27 degC by liquid dilution method; assay type: functional
[7] = system: Aspergillus flavus; experiment: Antifungal activity against Aspergillus flavus after 7 days at 27 degC by liquid dilution method; assay type: functional
[8] = system: Ralstonia solanacearum; experiment: Antibacterial activity against Pseudomonas solanacearum after 24 to 48 hrs at 37 degC by liquid dilution method; assay type: functional
[9] = system: Klebsiella pneumoniae; experiment: Antibacterial activity against Klebsiella pneumoniae ATCC 13883 after 24 to 48 hrs at 37 degC by liquid dilution method; assay type: functional
[10] = system: Staphylococcus aureus; experiment: Antibacterial activity against Staphylococcus aureus […] after 24 to 48 hrs at 37 degC by liquid dilution method; assay type: functional
[11] = system: Salmonella typhimurium; experiment: Antibacterial activity against Salmonella Typhimurium ATCC 14028 after 24 to 48 hrs at 37 degC by liquid dilution method; assay type: functional, Salmonella enterica subsp. enterica serovar Typhimurium; conditions: Salmonella enterica
[12] = system: Escherichia coli; experiment: Antibacterial activity against Escherichia coli ATCC 25922 after 24 to 48 hrs at 37 degC by liquid dilution method; assay type: functional
[13] = system: Mycolicibacterium smegmatis; experiment: Antibacterial activity against Mycobacterium smegmatis ATCC 607 after 24 to 48 hrs at 37 degC by liquid dilution method; assay type: functional
[14] = system: Candida albicans; experiment: Antifungal activity against Candida albicans CBS 562 after 24 to 48 hrs at 37 degC by liquid dilution method; assay type: functional
[15] = system: Pseudomonas aeruginosa; experiment: Antibacterial activity against Pseudomonas aeruginosa ATCC 27853 after 24 to 48 hrs at 37 degC by liquid dilution method; assay type: functional
[16] = system: Streptococcus pyogenes; experiment: Antibacterial activity against Streptococcus pyogenes ATCC 19651 after 24 to 48 hrs at 37 degC by liquid dilution method; assay type: functional
[17] = system: Enterobacter cloacae; experiment: Antibacterial activity against Enterobacter cloacae ATCC 23355 after 24 to 48 hrs at 37 degC by liquid dilution method; assay type: functional
[18] = system: Shigella dysenteriae; experiment: Antibacterial activity against Shigella dysenteriae after 24 to 48 hrs at 37 degC by liquid dilution method; assay type: functional

Compound | MIC [1] | MIC [3] | MIC [4] | MIC [8] | MIC [9] | MIC [10] | MIC [11] | MIC [12] | MIC [13] | MIC [14] | MIC [15] | MIC [16] | MIC [17] | MIC [18] | further results
COc1c(-c2ccc(O)c(O)c2)oc2cc(O)cc(O)c2c1=O [3-O-METHYLQUERCETIN] | 100 µg/mL (≈ 316 µM) | 50 µg/mL (≈ 158 µM) | 100 µg/mL (≈ 316 µM) | 100 µg/mL (≈ 316 µM) | 100 µg/mL (≈ 316 µM) | 6.25 µg/mL (≈ 19.8 µM) | 50 µg/mL (≈ 158 µM) | 100 µg/mL (≈ 316 µM) | 100 µg/mL (≈ 316 µM) | 12.5 µg/mL (≈ 39.5 µM) | 100 µg/mL (≈ 316 µM) | 100 µg/mL (≈ 316 µM) | 100 µg/mL (≈ 316 µM) | 100 µg/mL (≈ 316 µM) | MIC ([2]; 168 h): 100 µg/mL (≈ 316 µM); MIC ([5]; 168 h): 100 µg/mL (≈ 316 µM); MIC ([6]; 168 h): 100 µg/mL (≈ 316 µM); MIC ([7]; 168 h): 100 µg/mL (≈ 316 µM)
CN(C)[C@@H]1C(O)=C(C(N)=O)C(=O)[C@@]2(O)C(O)=C3C(=O)c4c(O)cccc4[C@@](C)(O)[C@H]3C[C@@H]12.Cl [TETRACYCLINE HYDROCHLORIDE] | 25 µg/mL | 3.12 µg/mL | 25 µg/mL | 100 µg/mL | 12.5 µg/mL | 100 µg/mL | 12.5 µg/mL | 6.25 µg/mL | 100 µg/mL | – | 100 µg/mL | 6.25 µg/mL | 12.5 µg/mL | 0.78 µg/mL | –
NYSTATIN | – | – | – | – | – | – | – | – | – | 0.78 µg/mL | – | – | – | – | MIC [2]: 100 µg/mL; MIC [5]: 50 µg/mL; MIC [6]: 50 µg/mL; MIC [7]: 12.5 µg/mL
